Calls of active or inactive are those of the source. The rule behind the calls is not given here.
How the values were obtained:
[1] = Half life in 12 hr fasted SPF Sprague-Dawley rat at 5 mg/kg, iv upon 2 hrs fasting post-administration measured upto 24 hrs; format: ADME, organism-based; conditions: in vivo
[2] = AUC(0 to infinity) in 12 hr fasted SPF Sprague-Dawley rat at 15 mg/kg, po upon 2 hrs fasting post-administration upto 24 hrs; format: ADME, organism-based; design: dose 15 mg/kg, time < 24 hrs, route po; conditions: in vivo
[3] = Oral bioavailability in 12 hr fasted SPF Sprague-Dawley rat at 15 mg/kg upon 2 hrs fasting post-administration measured upto 24 hrs; format: ADME, organism-based; conditions: in vivo
[4] = molecular target: NUAK family SNF1-like kinase 1 (Homo sapiens) (UniProt O60285); assay: Inhibition of human ARK5 at 0.5 uM relative to control
Sequence of NUAK family SNF1-like kinase 1 (Homo sapiens) (O60285 whole entry): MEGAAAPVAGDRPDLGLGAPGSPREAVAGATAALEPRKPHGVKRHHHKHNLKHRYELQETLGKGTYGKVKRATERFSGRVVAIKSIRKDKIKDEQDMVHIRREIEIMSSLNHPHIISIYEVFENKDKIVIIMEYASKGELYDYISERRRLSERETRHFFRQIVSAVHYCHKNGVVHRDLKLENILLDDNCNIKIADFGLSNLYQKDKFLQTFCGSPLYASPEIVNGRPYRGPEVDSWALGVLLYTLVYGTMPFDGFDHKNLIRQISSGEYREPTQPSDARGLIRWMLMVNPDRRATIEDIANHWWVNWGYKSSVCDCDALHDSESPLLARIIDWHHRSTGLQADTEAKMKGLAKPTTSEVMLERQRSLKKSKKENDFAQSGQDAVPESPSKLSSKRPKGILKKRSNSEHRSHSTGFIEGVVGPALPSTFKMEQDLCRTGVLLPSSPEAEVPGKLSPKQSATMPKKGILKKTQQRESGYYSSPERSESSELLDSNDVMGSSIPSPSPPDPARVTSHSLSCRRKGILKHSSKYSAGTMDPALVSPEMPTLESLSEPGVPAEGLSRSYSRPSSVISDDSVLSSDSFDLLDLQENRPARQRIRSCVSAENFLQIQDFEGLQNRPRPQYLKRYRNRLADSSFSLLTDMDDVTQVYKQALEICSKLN

[5] = molecular target: Receptor-type tyrosine-protein kinase FLT3 (Homo sapiens, UniProt P36888); assay: Inhibition of human FLT3
Sequence of Receptor-type tyrosine-protein kinase FLT3 (P36888 whole entry): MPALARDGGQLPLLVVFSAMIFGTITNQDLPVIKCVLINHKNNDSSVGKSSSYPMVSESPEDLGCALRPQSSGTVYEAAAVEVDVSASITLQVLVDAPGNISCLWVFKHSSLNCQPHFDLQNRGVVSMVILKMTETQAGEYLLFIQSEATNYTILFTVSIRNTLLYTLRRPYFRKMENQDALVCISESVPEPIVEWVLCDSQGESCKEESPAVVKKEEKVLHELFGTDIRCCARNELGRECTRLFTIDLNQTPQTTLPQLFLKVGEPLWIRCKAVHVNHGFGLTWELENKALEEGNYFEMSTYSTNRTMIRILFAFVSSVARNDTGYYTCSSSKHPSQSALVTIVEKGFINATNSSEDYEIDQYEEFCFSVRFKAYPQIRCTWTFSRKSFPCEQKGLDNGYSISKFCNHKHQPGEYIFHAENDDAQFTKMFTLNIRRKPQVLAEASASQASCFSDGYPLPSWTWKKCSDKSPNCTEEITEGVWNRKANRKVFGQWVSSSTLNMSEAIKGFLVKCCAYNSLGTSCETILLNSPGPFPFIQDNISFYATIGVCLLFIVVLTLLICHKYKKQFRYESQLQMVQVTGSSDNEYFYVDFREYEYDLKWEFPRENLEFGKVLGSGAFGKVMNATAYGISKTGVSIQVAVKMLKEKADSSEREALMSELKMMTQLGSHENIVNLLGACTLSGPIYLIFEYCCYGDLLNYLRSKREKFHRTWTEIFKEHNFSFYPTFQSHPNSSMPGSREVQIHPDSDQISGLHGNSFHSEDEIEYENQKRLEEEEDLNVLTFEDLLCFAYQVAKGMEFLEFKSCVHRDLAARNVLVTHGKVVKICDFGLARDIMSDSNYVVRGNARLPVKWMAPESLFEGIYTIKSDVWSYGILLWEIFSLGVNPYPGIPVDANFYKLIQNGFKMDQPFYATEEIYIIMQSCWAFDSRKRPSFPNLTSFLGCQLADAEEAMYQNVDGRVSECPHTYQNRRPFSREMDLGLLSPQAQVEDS

[6] = molecular target: T1, Tyrosine-protein kinase JAK3 (Homo sapiens, UniProt P52333); assay: Inhibition of human JAK3
T1 sequence (P52333 whole entry): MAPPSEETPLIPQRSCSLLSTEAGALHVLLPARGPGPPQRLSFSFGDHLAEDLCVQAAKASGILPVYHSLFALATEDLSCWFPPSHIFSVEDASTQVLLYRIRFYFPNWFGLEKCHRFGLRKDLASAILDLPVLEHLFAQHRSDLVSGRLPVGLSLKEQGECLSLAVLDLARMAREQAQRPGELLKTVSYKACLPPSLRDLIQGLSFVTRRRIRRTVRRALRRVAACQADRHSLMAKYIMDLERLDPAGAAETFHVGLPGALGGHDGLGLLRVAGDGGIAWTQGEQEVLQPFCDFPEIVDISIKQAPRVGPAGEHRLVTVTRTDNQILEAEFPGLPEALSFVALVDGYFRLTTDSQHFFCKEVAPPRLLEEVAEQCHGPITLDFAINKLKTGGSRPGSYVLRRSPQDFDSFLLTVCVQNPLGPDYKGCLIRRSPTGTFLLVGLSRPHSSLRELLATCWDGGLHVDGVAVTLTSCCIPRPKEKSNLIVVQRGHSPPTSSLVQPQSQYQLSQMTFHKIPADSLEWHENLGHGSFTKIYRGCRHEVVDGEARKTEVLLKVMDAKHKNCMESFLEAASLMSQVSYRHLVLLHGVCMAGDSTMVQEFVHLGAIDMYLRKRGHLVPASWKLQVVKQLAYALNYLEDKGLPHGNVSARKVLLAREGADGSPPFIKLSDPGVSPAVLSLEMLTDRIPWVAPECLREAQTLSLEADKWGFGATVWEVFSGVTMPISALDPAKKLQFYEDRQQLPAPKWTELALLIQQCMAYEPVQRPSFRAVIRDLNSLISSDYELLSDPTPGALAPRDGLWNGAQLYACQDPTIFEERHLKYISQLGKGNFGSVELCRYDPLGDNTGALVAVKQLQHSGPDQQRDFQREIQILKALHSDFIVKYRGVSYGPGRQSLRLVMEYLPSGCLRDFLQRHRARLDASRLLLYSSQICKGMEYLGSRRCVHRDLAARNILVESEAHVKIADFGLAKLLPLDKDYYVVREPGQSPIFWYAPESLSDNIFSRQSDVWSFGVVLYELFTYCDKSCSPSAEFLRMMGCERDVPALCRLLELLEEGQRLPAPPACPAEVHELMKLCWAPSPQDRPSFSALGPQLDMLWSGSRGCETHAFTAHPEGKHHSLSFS

[7] = molecular target: Tyrosine-protein kinase Tec (Homo sapiens) (UniProt P42680); assay: Inhibition of TEC (unknown origin) at 0.5 uM relative to control
Sequence of Tyrosine-protein kinase Tec (Homo sapiens) (P42680 whole entry): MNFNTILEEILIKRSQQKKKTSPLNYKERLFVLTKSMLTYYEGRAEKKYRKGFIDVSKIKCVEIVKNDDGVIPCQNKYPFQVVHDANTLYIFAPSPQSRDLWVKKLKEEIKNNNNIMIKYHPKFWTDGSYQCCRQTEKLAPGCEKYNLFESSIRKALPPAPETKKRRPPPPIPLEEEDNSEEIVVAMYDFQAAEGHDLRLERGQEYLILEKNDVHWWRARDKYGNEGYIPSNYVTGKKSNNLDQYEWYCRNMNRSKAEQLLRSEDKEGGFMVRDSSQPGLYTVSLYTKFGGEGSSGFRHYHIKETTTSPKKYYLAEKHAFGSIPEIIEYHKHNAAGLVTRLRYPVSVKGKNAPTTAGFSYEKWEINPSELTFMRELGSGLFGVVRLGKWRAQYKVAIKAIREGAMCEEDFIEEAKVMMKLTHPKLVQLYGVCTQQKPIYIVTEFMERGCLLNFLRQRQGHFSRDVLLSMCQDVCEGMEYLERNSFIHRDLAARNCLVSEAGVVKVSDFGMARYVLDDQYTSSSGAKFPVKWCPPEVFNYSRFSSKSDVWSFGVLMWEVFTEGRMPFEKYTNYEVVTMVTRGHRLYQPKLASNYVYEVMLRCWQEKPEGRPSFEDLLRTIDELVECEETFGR

[8] = molecular target: Tyrosine-protein kinase BTK (Homo sapiens) (UniProt Q06187); assay: Inhibition of BTK (unknown origin) at 0.5 uM relative to control
Sequence of Tyrosine-protein kinase BTK (Homo sapiens) (Q06187 whole entry): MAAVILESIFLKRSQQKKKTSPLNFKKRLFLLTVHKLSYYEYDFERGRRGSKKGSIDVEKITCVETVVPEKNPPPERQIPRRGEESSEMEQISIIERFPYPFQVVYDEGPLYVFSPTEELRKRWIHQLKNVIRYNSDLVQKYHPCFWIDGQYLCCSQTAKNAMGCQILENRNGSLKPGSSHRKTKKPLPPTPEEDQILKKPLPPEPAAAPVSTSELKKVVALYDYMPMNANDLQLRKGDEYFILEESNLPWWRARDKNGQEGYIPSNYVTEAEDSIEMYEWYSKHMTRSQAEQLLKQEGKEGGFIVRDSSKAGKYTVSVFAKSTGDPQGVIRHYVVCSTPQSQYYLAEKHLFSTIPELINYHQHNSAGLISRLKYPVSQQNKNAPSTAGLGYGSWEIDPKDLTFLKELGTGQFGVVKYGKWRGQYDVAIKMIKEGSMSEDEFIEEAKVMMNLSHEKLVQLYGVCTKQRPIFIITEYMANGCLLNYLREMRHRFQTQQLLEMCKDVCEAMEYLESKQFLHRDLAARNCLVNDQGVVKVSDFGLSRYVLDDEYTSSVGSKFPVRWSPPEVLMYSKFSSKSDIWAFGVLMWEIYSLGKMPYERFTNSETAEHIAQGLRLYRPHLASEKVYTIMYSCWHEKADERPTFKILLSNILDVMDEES

[9] = molecular target: T2, Tyrosine-protein kinase JAK3 (Homo sapiens) (UniProt P52333); assay: Inhibition of JAK3 activation in human U-937 cells assessed as decrease in P-STAT5 at 100 uM by Western blot analysis; format: cell-based; conditions: time 0-24 hrs, TDE = time-dependent effect
T2 sequence (whole entry): T1 sequence (P52333 whole entry)

[10] = test system: U-937; assay: Induction of cell cycle arrest in human U-937 cells assessed as accumulation at G0/G1 phase at 3.7 nM measured after 24 hrs by propidium iodide staining based flow cytometric analysis (reference value: 62.95%); format: functional
[11] = test system: U-937; assay: Induction of cell cycle arrest in human U-937 cells assessed as accumulation at G0/G1 phase at 300 nM measured after 24 hrs by propidium iodide staining based flow cytometric analysis (reference value: 62.95%); format: functional
[12] = test system: U-937; assay: Induction of cell cycle arrest in human U-937 cells assessed as accumulation at S phase at 100 nM measured after 24 hrs by propidium iodide staining based flow cytometric analysis (reference value: 15.35%); format: functional
[13] = test system: U-937; assay: Induction of cell cycle arrest in human U-937 cells assessed as accumulation at S phase at 300 nM measured after 24 hrs by propidium iodide staining based flow cytometric analysis (reference value: 15.35%); format: functional
[14] = test system: U-937; assay: Induction of cell cycle arrest in human U-937 cells assessed as downregulation of CDK2 at 0 to 300 nM measured after 24 hrs by western blot analysis; format: functional, cell-based; conditions: dose 0-300 nM
[15] = test system: U-937; assay: Induction of cell cycle arrest in human U-937 cells assessed as downregulation of CDK6 at 0 to 300 nM measured after 24 hrs by western blot analysis; format: functional, cell-based; conditions: dose 0-300 nM
[16] = test system: U-937; assay: Induction of cell cycle arrest in human U-937 cells assessed as downregulation of Cyclic B1 at 0 to 300 nM measured after 24 hrs by western blot analysis; format: functional, cell-based; conditions: dose 0-300 nM
[17] = test system: U-937; assay: Antitumor activity against human U-937 cells xenografted in po dosed CB17-SCID mouse assessed as tumor growth inhibition twice daily for 10 days; format: functional, organism-based; conditions: time 10.0 day, DDE = dose-dependent effect
[18] = Toxicity in CB17-SCID mouse xenografted with human U-937 cells assessed as body weight loss at 12.5 to 50 mg/kg, po twice daily for 10 days; format: organism-based; conditions: in vivo, 240 h, dose 12.5-50 mg/kg, time 10 day
[19] = molecular target: NUAK family SNF1-like kinase 1 (Homo sapiens) (UniProt O60285); assay: Inhibition of human ARK5 at 0.5 uM assessed as competition rate relative to control
[20] = molecular target: Receptor-type tyrosine-protein kinase FLT3 (Homo sapiens) (UniProt P36888); assay: Inhibition of human FLT3 at 0.5 uM assessed as competition rate relative to control
Sequence of Receptor-type tyrosine-protein kinase FLT3 (Homo sapiens) (P36888 whole entry): as the sequence (P36888 whole entry) above

[21] = molecular target: Tyrosine-protein kinase Tec (Homo sapiens) (UniProt P42680); assay: Inhibition of TEC (unknown origin) at 0.5 uM assessed as competition rate relative to control
[22] = molecular target: Tyrosine-protein kinase TXK (Homo sapiens) (UniProt P42681); assay: Inhibition of TXK (unknown origin) at 0.5 uM assessed as competition rate relative to control
Sequence of Tyrosine-protein kinase TXK (Homo sapiens) (P42681 whole entry): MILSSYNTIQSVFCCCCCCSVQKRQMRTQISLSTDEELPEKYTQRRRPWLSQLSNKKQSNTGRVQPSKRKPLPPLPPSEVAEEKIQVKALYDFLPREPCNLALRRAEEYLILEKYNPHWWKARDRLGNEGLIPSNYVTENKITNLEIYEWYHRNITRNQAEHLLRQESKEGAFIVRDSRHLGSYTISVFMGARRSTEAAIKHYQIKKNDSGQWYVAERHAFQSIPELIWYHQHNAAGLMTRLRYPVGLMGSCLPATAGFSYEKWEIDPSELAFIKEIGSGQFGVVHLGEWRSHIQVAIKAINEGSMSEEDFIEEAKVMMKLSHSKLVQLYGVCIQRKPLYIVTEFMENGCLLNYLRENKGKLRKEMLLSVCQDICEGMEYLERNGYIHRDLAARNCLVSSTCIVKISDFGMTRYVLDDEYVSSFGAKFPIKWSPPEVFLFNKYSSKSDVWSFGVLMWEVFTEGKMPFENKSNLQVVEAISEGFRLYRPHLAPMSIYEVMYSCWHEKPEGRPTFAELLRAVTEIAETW

[23] = molecular target: Receptor tyrosine-protein kinase erbB-4 (Homo sapiens) (UniProt Q15303); assay: Inhibition of HER4 (unknown origin) at 0.5 uM assessed as competition rate relative to control
Sequence of Receptor tyrosine-protein kinase erbB-4 (Homo sapiens) (Q15303 whole entry): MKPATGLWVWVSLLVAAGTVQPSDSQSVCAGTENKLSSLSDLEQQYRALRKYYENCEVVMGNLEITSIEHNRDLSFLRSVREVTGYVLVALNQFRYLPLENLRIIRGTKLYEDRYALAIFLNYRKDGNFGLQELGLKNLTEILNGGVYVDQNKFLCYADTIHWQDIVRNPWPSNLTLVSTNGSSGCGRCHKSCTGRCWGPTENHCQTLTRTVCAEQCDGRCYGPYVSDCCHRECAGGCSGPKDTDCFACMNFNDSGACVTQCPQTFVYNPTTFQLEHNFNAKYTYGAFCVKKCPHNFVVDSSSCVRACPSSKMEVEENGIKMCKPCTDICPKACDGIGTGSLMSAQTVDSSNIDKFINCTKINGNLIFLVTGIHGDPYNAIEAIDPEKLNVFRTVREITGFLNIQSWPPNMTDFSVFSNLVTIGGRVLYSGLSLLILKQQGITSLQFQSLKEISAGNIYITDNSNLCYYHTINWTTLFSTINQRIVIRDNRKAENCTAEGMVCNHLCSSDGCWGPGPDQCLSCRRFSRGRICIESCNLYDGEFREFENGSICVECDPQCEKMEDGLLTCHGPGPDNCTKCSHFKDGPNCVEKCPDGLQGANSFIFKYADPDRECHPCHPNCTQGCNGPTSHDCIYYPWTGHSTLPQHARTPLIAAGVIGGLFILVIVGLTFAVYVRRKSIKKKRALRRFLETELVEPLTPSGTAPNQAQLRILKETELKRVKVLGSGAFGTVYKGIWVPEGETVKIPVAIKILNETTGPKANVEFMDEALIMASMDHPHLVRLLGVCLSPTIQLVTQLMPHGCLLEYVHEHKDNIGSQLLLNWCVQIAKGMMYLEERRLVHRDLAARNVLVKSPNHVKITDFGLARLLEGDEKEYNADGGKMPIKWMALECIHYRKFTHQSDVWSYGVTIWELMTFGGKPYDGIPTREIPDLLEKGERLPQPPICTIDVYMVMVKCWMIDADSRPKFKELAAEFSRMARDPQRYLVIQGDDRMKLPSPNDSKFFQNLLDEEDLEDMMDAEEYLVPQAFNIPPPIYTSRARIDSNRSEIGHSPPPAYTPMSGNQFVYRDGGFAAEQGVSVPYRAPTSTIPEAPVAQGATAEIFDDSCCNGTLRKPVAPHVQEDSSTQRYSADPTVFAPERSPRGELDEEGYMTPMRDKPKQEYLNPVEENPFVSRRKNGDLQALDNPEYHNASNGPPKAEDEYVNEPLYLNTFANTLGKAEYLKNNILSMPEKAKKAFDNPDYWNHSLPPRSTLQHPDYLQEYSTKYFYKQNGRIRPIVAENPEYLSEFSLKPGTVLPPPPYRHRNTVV

[24] = molecular target: [Pyruvate dehydrogenase (acetyl-transferring)] kinase isozyme 1, mitochondrial (Homo sapiens) (UniProt Q15118); assay: Inhibition of PDK1 (unknown origin) at 0.5 uM assessed as competition rate relative to control
[25] = test system: BaF3; assay: cells; conditions: Mus musculus, BaF3, 72 h
Description: Antiproliferative activity against mouse BaF3 parent cell measured after 72 hrs by CCK-8 assay

## C=CC(=O)Nc1cc(Nc2ncc(Cl)c(O[C@@H]3CO[C@H]4[C@@H]3OC[C@H]4OC)n2)ccc1N(C)CCN(C)C
[1]
  half-life: 54.6 min
[2]
  AUC(0-inf): 334 ng·h/mL
[3]
  bioavailability: 20.7%
[4]
  inhibition: 11%
[5]
  IC50: 132 nM
[6]
  IC50: 8 nM
[7]
  inhibition: 99%
[8]
  inhibition: 114%
[9]
  inhibition: Tde
[10]
  Activity: 61.57%
[11]
  Activity: 76.88%
[12]
  Activity: 9.85%
[13]
  Activity: 7.5%
[14]
  Activity: Active
[15]
  Activity: Active
[16]
  Activity: Active
[17]
  Activity: Dde
[18]
  Activity: Non-Toxic
[19]
  inhibition: 70%
[20]
  inhibition: 70%
[21]
  inhibition: 40%
[22]
  inhibition: 40%
[23]
  inhibition: 40%
[24]
  inhibition: 40%
[25]
  IC50: 165 nM

From ChEMBL document CHEMBL5137068, “Discovery of Hexahydrofuro[3,2-b]furans as New Kinase-Selective and Orally Bioavailable JAK3 Inhibitors for the Treatment of Leukemia Harboring a JAK3 Activating Mutant” (J Med Chem, 2022)
